According to PubChem BioAssay (NCI):
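The compound was tested at five concentrations on cells cultured in 96-well plates, with a 48-hour exposure period. GI50 is the concentration that inhibits growth by half. Definition used: TGI = concentration required for complete inhibition of growth.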

Columns and labels:
[1] = system: MDA-MB-435; assay: NCI-60 cell line screen, 48 h
[2] = system: MCF7 breast; assay: NCI-60 cell line screen, 48 h

SMILES	GI50 [1]	TGI [1]	GI50 [2]	TGI [2]
O=[N+]([O-])c1ccc(N/N=C\c2cc(Cl)ccc2O)nc1	1.76 µM	> 100 µM	2.73 µM	> 100 µM
O=c1c(Cl)nnc2sc3ccccc3n12	42 µM	> 100 µM	33.6 µM	> 100 µM
CC(=O)c1ccc(Nc2cc(-n3ccnc3)nc3ccccc23)cc1	13.5 µM	60.1 µM	36 µM	> 100 µM
COc1cc[nH]c1/C=C1\C(=O)Nc2ccc(F)c(C#C[C@@H](O)[C@@H](N)[C@@H](C)O)c21	0.561 µM	2.83 µM	0.545 µM	4.3 µM
O=[N+]([O-])c1ccc(Sc2ncccn2)c([N+](=O)[O-])c1	3.16 µM	13.3 µM	3.68 µM	17.7 µM
O/N=C1\CCc2cc(-c3nc(C4CCNCC4)[nH]c3-c3ccncc3)ccc21	12.1 µM	> 25 µM	> 25 µM	> 25 µM
COc1cc2c3c(n(C)c(=O)c2cc1OC)-c1cc2c(cc1/C3=C\CCCCN)OCO2	5.56 µM	20.3 µM	3.46 µM	12.7 µM
COc1ccc(/C(=C/c2cc(OC)c(OC)c(OC)c2)[N+](=O)[O-])cc1	1.81 µM	3.99 µM		
OB([O][Hg][c]1ccccc1)[O][Hg][c]1ccccc1	0.475 µM	1.63 µM		
Cc1ccc(-c2c(C#N)c(N)nc(N3CCOCC3)c2C#N)o1			64.9 µM	> 100 µM
COc1cc(-c2cc(C(=O)N3CCN(C(=O)c4ccccc4NCc4ccco4)CC3)nc3cc(-c4ccccc4)nn23)cc(OC)c1OC	0.309 µM	1.61 µM	0.92 µM	> 100 µM
O=C(Nc1ccncc1)C(=O)c1cn(S(=O)(=O)c2ccc(Br)cc2)c2ccccc12	0.459 µM	3.49 µM		
COc1cc2cc(Oc3ccc(NC(=O)Nc4cccc(C(F)(F)F)c4)cc3)c(C)nc2cc1OCCN1CCCCC1	1.59 µM	2.94 µM	1.63 µM	3.33 µM
COC(=O)[C@]12CC[C@@H](C)[C@H](C)[C@@H]1C1=CC[C@@H]3[C@@]4(C)CC(=O)[C@H](O)[C@@]5(C)COC(=C45)C[C@@]3(C)[C@]1(C)CC2	17 µM	32.5 µM	16.9 µM	35.6 µM
CC12OC(C(=O)C13CC3)C1C(=O)c3ccccc3C(=O)C12 (configuration not stated)	41.4 µM	> 100 µM	21.2 µM	78.6 µM
C1=CN2C[n+]3cccc(OCc4ccccc4)c3N=C2C(OCc2ccccc2)=C1		33.2 µM		> 100 µM

SMILES	GI50 [1]	TGI [1]	GI50 [2]	TGI [2]
O=S(=O)(c1ccc(NC(=S)N/N=C/c2ccccc2O)cc1)N1CCCCC1		11.2 µM		
COc1cc2c(cc1OC)C(=O)C(Br)CC2 (configuration not stated)	2.87 µM	10.4 µM	3.13 µM	13.7 µM
COc1ccc(-c2cc(-c3ccc(Nc4nc(Nc5ccc(Cl)cc5)nc(Nc5ccc(Cl)cc5)n4)cc3)nc(N)c2C#N)cc1	2.22 µM	7.53 µM	2.59 µM	> 32.3 µM
O=C(CCCc1c[nH]c2ccccc12)NC1CC(=O)c2c(Br)sc(Br)c21 (configuration not stated)	17.8 µM	57.3 µM	10.1 µM	29.5 µM
CCCCCCCCCCCCCCCCCCNC(=O)[C@H]1CSC(c2ccc(OC)c(F)c2)N1 (some centres not stated)	1.22 µM	2.91 µM	0.386 µM	1.4 µM
C[C@H]1[C@H](OC(=O)CCC(=O)O)O[C@@H]2O[C@]3(C)CC[C@H]4[C@H](C)CC[C@@H]1[C@@]24OO3	0.335 µM	13.5 µM	0.698 µM	20.8 µM
CCOC(=O)c1cnc(SCc2ccc(Cl)c(Cl)c2)nc1N1CC1	1.97 µM	11.4 µM	1.27 µM	11.4 µM
Cc1cc2c(C)c3cc(C)c(N)cc3nc2cc1N	1.06 µM	5.93 µM	0.342 µM	4.38 µM
N#C/C(=C\c1c(-c2ccccc2)[nH]c2ccccc12)C(=O)c1ccc(Cl)cc1			0.753 µM	14.5 µM
Nc1cccc2c1C(=O)N(C1CCC(=O)NC1=O)C2=O (configuration not stated)	> 100 µM	> 100 µM	> 100 µM	> 100 µM
Cn1cc(-c2ccc(=O)n(Cc3cccc(-c4ncc(OCCN5CCOCC5)cn4)c3)n2)cn1	61.8 µM	> 100 µM	39.5 µM	> 100 µM
COc1cccc(NC(=O)c2sc3nc4c(cc3c2N)CCCC4)c1	0.15 µM	0.44 µM	0.314 µM	> 100 µM
CCCCCCCCCCCCc1ccc(C(=O)/C=C/C(=O)O)cc1	3.05 µM	11.2 µM	1.62 µM	3.3 µM
COc1ccccc1C(=O)/C=C/c1cc2cccc(OC)c2[nH]c1=O			0.0358 µM	4.12 µM
COc1ccc(N(C)c2nc(C)nc3ccccc23)cc1	< 0.01 µM	< 0.01 µM	< 0.01 µM	> 100 µM
